Where two headings read alike, the source gives them in different places.

Test [1] has as its system L. major promastigotes. The test can be described thus: Flow cytometer-based growth inhibition and cytotoxicity assay. Particulars: 48 h, read-out: L. major promastigote EC50 (AVE±SD) Confirmation Flow Cytometry.
Test [2] concerns L. major axenic amastigote-like population. The test can be described thus: L. major axenic amastigote-like alamar blue assay (pH 4.9). The test is classed as cell-based, Leishmania major. The following applies: for growth inhibitory activity in axenic amastigote-like assay: pH 4.9.
For test [3], the system named is L. major promastigotes. The test can be described thus: L. major promastigote drug susceptibility assay (alamar blue, 384-well). The test is classed as cell-based, Leishmania major. As to the method:
Promastigotes were grown in vented T75 tissue culture flasks and maintained at 28°C. Promastigote cultures were initiated at 10^5 parasites per mL and subcultured every 3–4 days. L. major promastigote counts were performed in duplicate using a hemocytometer and particle counter (Beckman Coulter, Fullerton, CA). For HTS assays, L. major promastigote cultures were harvested during exponential growth phase (∼2.0–3.0×10^7 parasites/mL) and were not maintained past passage 20.
The final test compound concentration was 10 µM with a constant DMSO concentration of 1% in each assay well.
The L. major promastigote drug susceptibility assay was performed in a final volume of 25 µL using our previously described 384-well microtiter plate format,[39]. For automated HTS procedures, L. major promastigotes (5,000 parasites/22 µL) in complete growth medium were seeded into each well of the microtiter plates using a MAPC2 bulk dispenser (Titertek, Huntsville, AL). Test and control compounds (3 µL) were added to individual wells using a Velocity 11 V-prep (Menlo Park, CA) liquid handling system, equipped with a 384-well dispensing head, followed by centrifugation at 50 g for 1 min. […] Assay plates were allowed to incubate for 44 h at 28°C in the presence of 5% CO2. Five µL of alamar blue reagent were added to each assay plate well and incubated for 4 h at 28°C with 5% CO2. Data were captured on a Molecular Devices SpectraMax M5 (excitation560; emission590). Individual assay plate Z-factors were derived from the vehicle and positive controls, and data from plates were used only if Z-factors were >0.5 [50].
The assays were performed in duplicate with a final 10-point concentration range spanning 0.01–5.00 µM.

The next test relates to PC-3. The test can be described thus: Mammalian cell line specificity assay (alamar blue). The test is classed as cell-based, human. The following applies: 44–46 h, alamar blue, read-out: PC-3 EC50 (AVE±SD). As to the method: (§1) Mammalian cells were cultured and maintained according to ATCC specifications (ATCC, Manassas, VA). Cell line drug susceptibility assays were performed in final volumes of 25 µL using our previously described 384-well microtiter plate format,[39]. […] Test and control compounds were added to individual wells as described above. Vehicle and positive controls were 1% DMSO and 10% DMSO, respectively (final well concentrations). Assay plates were incubated for 44–46 h at 37°C in the presence of 5% CO2 and growth inhibitory effects were determined as described above. Five µL of alamar blue reagent was added to each well and incubated for 2–4 h. Data were captured as described above.

The subject of the next test is IMR-90. The test is described as above. The test is classed as cell-based, human. The following applies: 44–46 h, alamar blue, read-out: IMR90 EC50 (AVE±SD). As to the method: as §1
In another test the test system is A549. The test is described as above. The test is classed as cell-based, human. As to the method: as §1
The next test concerns MDA-MB-231. The description is as above. The following applies: 44–46 h, alamar blue, read-out: MDA EC50 (AVE±SD). Format: cell-based, human. As to the method: as §1
The next test has as its system HeLa. Described as above. Particulars: 44–46 h, alamar blue, read-out: HeLa EC50 (AVE±SD). Format: cell-based, human. As to the method:
as §1

The mark [4] stands for this setting: Homo sapiens, A549, 44–46 h, alamar blue, read-out: A549 EC50 (AVE±SD).
Where [5] appears, read: Homo sapiens, A549, Table S1, PMLSC library samples, read-out: EC50 Ave ± SD, A549.
Setting [6] is: Leishmania major, 144 h, pH 4.9, read-out: L. major axenic amastigote-like EC50 (AVE±SD) Confirmation Alamar Blue.
Setting [7] is: Leishmania major, read-out: EC50 Ave ± SD, Lm.
[8] abbreviates: Table S1, PMLSC library samples, 10-point 0.01–5.00 µM, read-out: EC50 Ave ± SD, Lm.
The mark [9] stands for this setting: Table S1, PMLSC library samples, read-out: EC50 Ave ± SD, A549.

Regarding `C[C@@]1(CO)[C@H](O)CC[C@@]2(C)[C@H]1CC[C@H]1C[C@@H]3C[C@@]12CC[C@]3(O)CO` [Aphidicolin, reference compound], the EC50 with L. major promastigotes [1] (Leishmania major) was 390 ± 110 nM; in test [2] (Leishmania major, pH 4.9, 144 h, 32°C, read-out: L. major axenic amastigote-like EC50 (AVE±SD) Confirmation Alamar Blue) it was 50 ± 10 nM; with L. major promastigotes [3] (Leishmania major, 48 h, compounds from commercial supplier, 44 h + 4 h alamar blue, 28°C, read-out: L. major promastigote EC50 (AVE±SD) Confirmation Alamar Blue) it was 220 ± 20 nM; in the test on L. major promastigotes [3] (Leishmania major, Table S1, PMLSC library samples, 10-point 0.01–5.00 µM, read-out: EC50 Ave ± SD, Lm), 121 ± 20 nM; in the test on PC-3 (Homo sapiens, PC-3) it was greater than 50 µM; in the test with IMR-90 (Homo sapiens, IMR-90) it was greater than 50 µM. The EC50 with A549 (setting [4]) is greater than 50 µM; in the test with A549 (setting [5]) it was greater than 5 µM; with MDA-MB-231 (Homo sapiens, MDA-MB-231) it was greater than 50 µM; with HeLa (Homo sapiens, HeLa) it was greater than 50 µM. Further, in test [2], the “growth inhibitory activity in axenic amastigote-like assay” value is “comparable to amphotericin B”.
With `Cc1[nH]c2c(Cl)cccc2c(=O)c1CN1CCCC1` [CID 728862], the 50% effective concentration (EC50) with L. major promastigotes [1] (Leishmania major) was 1770 ± 120 nM; in test [2] (setting [6]), 4300 ± 800 nM; in the test with L. major promastigotes [3] (setting [7]), 392 ± 50 nM; in the test with A549 (setting [5]), greater than 5 µM.
For `CCN(CC)CCN(C)C1CCC(c2ccccc2)CC1` (stereo not shown) [CID 742546], in that order: 430 ± 300 nM, greater than 50000 nM, 827 ± 116 nM and greater than 5 µM.
As to `Cc1cc(C)nc(/N=C2\SNSC2Cl)c1` (stereo not shown) [CID 757789], the half-maximal effective concentration (EC50) with L. major promastigotes [1] (Leishmania major) was 1940 ± 150 nM; in test [2] (setting [6]) it was 3200 ± 800 nM; in the test on L. major promastigotes [3] (setting [7]) it was 353 ± 25 nM; in the test on A549 (setting [5]) it was greater than 5 µM.
In the case of `COc1cccc2c(=O)c(C/C=C(/C)Cl)c(C)[nH]c12` [CID 760847], the EC50 in the test on L. major promastigotes [1] (Leishmania major) is 200 ± 50 nM; in test [2] (setting [6]) it was 210 ± 90 nM; in the test with L. major promastigotes [3] (setting [7]) it was 108 ± 23 nM; in the test on A549 (setting [5]), greater than 5 µM. The “growth inhibitory activity in axenic amastigote-like assay” value in test [2] was “comparable to amphotericin B”.
Turning to `Cc1ccc(S(=O)(=O)c2ccc(Oc3cccc(C)c3)cc2)cc1` [CID 786799], the 50% effective concentration (EC50) with L. major promastigotes [1] (Leishmania major) is 2220 ± 110 nM; in test [2] (setting [6]), 3600 ± 130 nM; with L. major promastigotes [3] (setting [7]), 180 ± 35 nM; in the test with A549 (setting [5]) it was greater than 5 µM.
For `Cc1ccc(OCCCCn2ccnc2)c(Cl)c1` [CID 2851545], in that order: 340 ± 480 nM, 11700 ± 500 nM, 133 ± 35 nM and greater than 5 µM.
On to `O=C1C2ON(c3ccc(Br)cc3)C(c3ccccn3)C2C(=O)N1C1CCCCC1` (stereo not shown) [CID 2946668], for which the EC50 in the test with L. major promastigotes [1] (Leishmania major) was 350 ± 60 nM; in test [2] (setting [6]) it was 1200 ± 400 nM; in the test with L. major promastigotes [3] (setting [7]) it was 515 ± 66 nM; in the test on A549 (setting [5]), greater than 5 µM.
Turning to `CCOC(=O)c1c(-c2ccc(F)cc2)csc1NC(=O)CCN1CCOCC1` [CID 15945170], the EC50 with L. major promastigotes [3] (setting [8]) was 178 ± 36 nM; with A549 (setting [9]), greater than 5 µM.
In the case of `Cc1ccc(-c2cc(-c3ccc(C)cc3)[n+](C)o2)cc1.[O-][Cl+3]([O-])([O-])[O-]` [CID 15945780], the EC50 was 184 ± 12 nM in the test on L. major promastigotes [3] (setting [8]) and greater than 5 µM with A549 (setting [9]).
On to `Cn1cc(CN2CCC(CO)CC2)c(-c2ccc(Oc3ccccc3)cc2)n1` [CID 16187569], for which the EC50 with L. major promastigotes [3] (setting [8]) was 165 ± 25 nM; in the test with A549 (setting [9]), greater than 5 µM.
With `CC(C)(C)c1ccc(C(=O)C2CCCN(C3CCC3)C2)cc1` (stereo not shown) [CID 16187595], the concentration giving a half-maximal response (EC50) was 40 ± 10 nM with L. major promastigotes [1] (Leishmania major); 2300 ± 200 nM in test [2] (setting [6]); 14 ± 13 nM with L. major promastigotes [3] (setting [7]); greater than 5 µM in the test with A549 (Homo sapiens, A549, read-out: EC50 Ave ± SD, A549).
With `O=C(c1ccc(-c2ccccc2)c(F)c1)C1CCCN(CCO)C1` (stereo not shown) [CID 16187738], the concentration for a half-maximal effect (EC50) was 511 ± 44 nM with L. major promastigotes [3] (setting [8]) and greater than 5 µM with A549 (setting [9]).
As for `CC12CCC(C(=O)N(CCCN3CCN(Cc4ccccc4)CC3)C1=O)C2(C)C` (stereo not shown) [CID 16189740], the EC50 in the test on L. major promastigotes [3] (setting [8]) was 571 ± 113 nM; in the test on A549 (setting [9]), greater than 5 µM.
On the same counts, the results for `CC(C)(C)c1ccc(-c2ncccc2O)cc1` [CID 16192568] are 301 ± 50 nM and greater than 5 µM.
On the same counts, the results for `NCC12CC3CC(C1)CC(c1ccc(Cl)cc1)(C3)C2` [CID 16192591] are 357 ± 56 nM and 3.75 ± 0.623 µM.
`COc1ccc(/C=C/c2cc[n+](C(=O)Cc3ccccc3)cc2)cc1` [CID 16196001]: the EC50 is 50 ± 9 nM in the test with L. major promastigotes [3] (setting [8]) and greater than 5 µM with A549 (setting [9]).
In the case of `C[n+]1c(-c2ccccc2)cc(CCCCc2cc(-c3ccccc3)[n+](C)c(-c3ccccc3)c2)cc1-c1ccccc1.[O-][Cl+3]([O-])([O-])O` [CID 16196006], the EC50 with L. major promastigotes [3] (setting [8]) is 703 ± 44 nM; in the test with A549 (setting [9]) it was greater than 5 µM.
On the same counts, the results for `COc1ccc(-[n+]2c(C)cc(/C=C3\Sc4ccccc4N3C)cc2C)cc1` [CID 16196223] are 18 ± 2 nM and 2.33 ± 0.205 µM.
For `Cc1cc(/C=C2\Sc3ccccc3N2C)cc(C)[n+]1CC1CCCO1` (stereo not shown) [CID 16196319], in that order: 15 ± 1 nM and greater than 5 µM.
`CN(C)CCOc1ccccc1Cc1ccccc1` [Phenytoloxamine, reference compound]: the EC50 is 300 ± 30 nM in the test on L. major promastigotes [1] (Leishmania major); greater than 50000 nM in test [2] (setting [6]); 502 ± 87 nM with L. major promastigotes [3] (setting [7]); greater than 50 µM in the test on PC-3 (Homo sapiens, PC-3); greater than 50 µM in the test with IMR-90 (Homo sapiens, IMR-90); greater than 50 µM in the test on A549 (setting [4]). In addition, the EC50 in the test on A549 (setting [5]) was greater than 5 µM; in the test on MDA-MB-231 (Homo sapiens, MDA-MB-231), greater than 50 µM; in the test on HeLa (Homo sapiens, HeLa) it was greater than 50 µM.
In the case of “Pentamidine Isethionate [reference compound]”, the EC50 with L. major promastigotes [1] (28°C, ViaCount, 0.1–50 µM) is 730 ± 390 nM; in test [2] (read-out: L. major axenic amastigote-like EC50 (AVE±SD) Confirmation Alamar Blue, pH 4.9, 144 h, 32°C), 1260 ± 40 nM; in the test on L. major promastigotes [3] (read-out: EC50 Ave ± SD, Lm, Table S1, PMLSC library samples, 10-point 0.01–5.00 µM), 46 ± 12 nM; in the test with PC-3, greater than 50 µM; in the test on IMR-90 it was greater than 50 µM; in the test with A549 (read-out: A549 EC50 (AVE±SD), 44–46 h, alamar blue), greater than 50 µM. Moreover, the EC50 with A549 (read-out: EC50 Ave ± SD, A549, Table S1, PMLSC library samples) is greater than 5 µM; in the test with MDA-MB-231, greater than 50 µM; in the test with HeLa, greater than 50 µM. Besides, the “primary hit (≥50% inhibition of signal readout)” value in the test with L. major promastigotes [3] (single concentration 10 µM, LOPAC, UP-CMLD DP validation set or PMLSC library) is reported as “primary hits”.

These data come from PMC2765639 (PLoS Neglected Tropical Diseases, 2009).
